Consider 2 compounds from patent US8067418B2, “Tricyclic angiotensin II agonists” (Vicore Pharma AB, priority 2005, dated 2011).

One assay relates to duodenal mucosa. Put plainly: Test C: duodenal mucosal alkaline secretion assay. It is filed as in vivo. As to conditions: co-administration with title compounds of the Examples, anaesthetised rats. The text has this:
Duodenal Mucosal Alkaline Secretion Assay
Compounds were exposed to the duodenal mucosa in barbiturate-anaesthetised rats prepared for in situ titration of duodenal mucosal alkaline secretion, according to the methodology described by Flemström et al in Am. J. Physiol. (1982) 243, G348.

The target in a further assay is T1, AT2 receptor (Sus scrofa, UniProt A0A4X1W622).
T1 sequence (A0A4X1W622 1-362): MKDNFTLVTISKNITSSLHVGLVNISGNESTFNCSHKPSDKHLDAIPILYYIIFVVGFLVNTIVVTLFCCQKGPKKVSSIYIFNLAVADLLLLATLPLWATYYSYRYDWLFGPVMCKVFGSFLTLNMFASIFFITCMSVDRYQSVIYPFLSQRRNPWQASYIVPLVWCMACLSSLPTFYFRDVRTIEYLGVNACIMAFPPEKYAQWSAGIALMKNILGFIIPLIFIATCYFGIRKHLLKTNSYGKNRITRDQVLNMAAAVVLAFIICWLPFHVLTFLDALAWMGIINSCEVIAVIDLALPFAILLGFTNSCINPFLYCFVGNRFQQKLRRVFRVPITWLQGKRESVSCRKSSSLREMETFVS
As to conditions: read-out: dissociation constant (Kd) at AT2 receptor; Scatchard analysis, porcine myometrial membranes, [L]=0.057 nM.

Method for AT2 receptor: Myometrial membranes were prepared from porcine uteri according to the method by Nielsen et al (Clin. Exp. Pharm. Phys. (1997) 24, 309). […] Samples were incubated at 25° C. for 1 h, and binding was terminated by filtration through Whatman GF/B glass-fiber filter sheets using a Brandel cell harvester. The filters were washed with 3×3 mL of Tris-HCl (pH 7.4) and transferred to tubes. The radioactivity was measured using a gamma counter. […] The binding data were best fitted with a one-site fit. All experiments were performed at least in triplicate.

`Cc1cc(Cn2cnc3c2C[C@@H](C(=O)O)N(C(=O)C(c2ccccc2)c2ccccc2)C3)ccc1N(C)C` [PD123319]: the “effect of co-administration on the mucosal alkalisation stimulated by title compounds” value with duodenal mucosa is reported as “blocked”. For orientation: Kd means the free concentration of one partner at which half of the binding sites on the other are occupied at equilibrium, for simple one-to-one binding. As for “Asp^1-Arg^2-Val^3-Tyr^4-Ile^5-His^6-Pro^7-Phe^8 [Ang II]”, the Kd at AT2 receptor worked out at 0.7 ± 0.1 nM.
